Experimental data reported in patent US20040253224A1, “Mammalian mucinase, its recombinant production, and its use in therapy or prophylaxis against diseases in which mucus is involved or infectious diseases” (priority 2001, published 2004).

How the values were obtained:
[1] = cited from earlier work
[2] = system: Candida albicans strain CAi-4 spheroplasts; assay: chitin content of cell wall of regenerating spheroplasts (Calcofluor white); assay type: cell-based; conditions: 3 μg per ml enzyme, 2 hours incubation
Protocol: (§1) […]. […] Chitinase enzyme preparations were added in 3 μg/ml.
In addition, the mouse acidic chitinase and chitotriosidase were both able to digest chitin in the cell wall of regenerating spheroplasts of Candida albicans. The chitin content of the cell wall was determined with the Calcofluor white stain. When regenerating cells were incubated for 2 hours with 3 μg per ml recombinant chitotriosidase or 3 μg per ml recombinant mouse acidic chitinase, the chitin content was reduced by 27% and 33%, respectively.

[3] = assay type: physicochemical; conditions: for enzyme precipitated at 0.5% (w/v) TCA: 0.5% (w/v) trichloroacetic acid
Protocol: Panel C: Precipitation by trichloroacetic acid (TCA). Purified recombinant human chitotriosidase and mouse AMCase were incubated with the indicated percentages of TCA. The amount of remaining enzyme activity after centrifugation is shown as a percentage of initial amounts.
(§2) The pH dependence of chitinase activity of AMCase was determined by incubating purified enzyme at a different pH (Mcllvaine buffer range 1.7-8.5) with 4-methylumbelliferyl substrates. Release of the fluorescent 4-metylumbelliferone was monitored fluorometrically (excitation […]).

[4] = chitin degradation products by FACE; assay type: biochemical; conditions: FACE analysis
Protocol: FIG. 2. Degradation products with colloidal chitin as substrate. The FACE technique (described in experimental procedures) was used to visualize the cleavage products of recombinant human chitotriosidase and recombinant mouse AMCase using colloidal chitin as substrate. Lane 1, no enzyme added. Lane 2, products formed after incubation with 50 kDa recombinant human chitotriosidase with chitin. Lane 3, products formed with recombinant mouse AMCase and chitin. Lane 4, human chitotriosidase incubated without substrate. Lane 5, mouse AMCase incubated without substrate. Marker lane is indicated with M (sugar polymers are indicated on the right-hand side).
as §1

[5] = pH dependence of chitinase activity (McIlvaine buffer, 4-methylumbelliferyl substrates); assay type: biochemical; conditions: McIlvaine buffer range 1.7-8.5
Protocol: Panel A: pH activity profile of the different chitinases. The pH optima were determined by monitoring enzyme activity at the indicated pH in Mcllvaine buffer. Purified human recombinant chitotriosidase (closed lozenge), purified mouse AMCase (closed circle).
as §2

[6] = stability on pre-incubation at acidic or basic pH; assay type: physicochemical; conditions: 30 minutes pre-incubation in McIlvaine buffer
Protocol: Panel B: Effects of acidic pre-incubation. Purified recombinant human chitotriosidase and mouse AMCase were pre-incubated for 30 minutes at the indicated pH in Mcllvaine buffer prior to enzyme activity measurement at the assay pH (see experimental procedures). Activity prior to incubation at the indicated pH is defined as 100%.
as §2

[7] = expression of full-length cDNA in COS-1 cells, chitinolytic activity; assay type: biochemical; conditions: data not shown
Text: These two sequences are most probably splice variants of the human acidic chitinase mRNA.

[8] = specific activity of purified enzyme on 4MU-chitotrioside; assay type: biochemical; conditions: pH 5.2
Protocol: (§3) Chitin affinity chromatography was used to purify the enzyme. Detergent-free extracts of mouse tissues were prepared by homogenization in 10 volumes of potassium phosphate buffer pH 6.5, using an Ultra-turrax and centrifugation for 20 minutes at 15,000×g. The mouse intestine extract was adjusted to pH 5.0 by the addition of citric acid (0.2 M); NaCl was added to a final concentration of 2 M. A chitin column was prepared by mixing 10 grams swollen Sepharose G25 fine (Pharmacia, Uppsala, Sweden) with 300 mg of colloidal chitin (prepared as described by Shimahara et al. (Shimahara et al., 1988), followed by equilibration with phosphate-buffered saline (PBS) containing 2M NaCl. The extracts were applied onto the column with a flow speed of 0.4 ml/minute. After extensive washing, bound chitinase was eluted from the column with 8M urea, which was subsequently removed by dialysis. Protein concentrations were determined according to the method of Lowry et al. (Lowry et al 1951) using BSA as a standard. Fractions containing chitinase activity were subjected to SDS-PAGE and Western blotting as described (Renkema et al., 1995).
The specific activity of the purified enzyme was 3.9 nmol 4-methylumbelliferyl-chitotrioside hydrolyzed per mg per hour at pH 5.2, which is almost identical to that of human chitotriosidase.
as §1

[9] = system: Bovine submaxillary gland mucin; assay: degradation of mucin, SDS-PAGE and silver staining; assay type: biochemical; conditions: 125 μg mucin, 500 ng enzyme, 0.05M NaAc pH 5.0, overnight 37° C.
Protocol: (§4) FIG. 7. The effect of AMCase on glycoproteins was studied by evaluating the effect of mouse AMCase on mucin, a type of glycoproteins expressed on mucosal surfaces in the airways and gastrointestinal tract. Bovine submaxillary gland mucin (Sigma) 125 μg was dissolved in 40 μl 0.05M NaAc pH 5.0 in the presence or absence of 500 ng mouse AMCase. After overnight incubation at 37° C., the mucin was electrophorized on an SDS-PAGE gel 7.5%, followed by silver staining.
as §4, with “The” for “FIG. 7. The”, “of” for “of mouse”, “glycoprotein” for “type of glycoproteins”, “(7.5% homogeneous,” for “7.5%,”, “staining). As is shown in FIG. 7, the mucin was degraded by treatment with the AMCase.” for “staining.”

[10] = binding to chitin particles
Protocol: as §3

[11] = system: hyphae of Candida albicans; assay: incubation of hyphae with recombinant AMCase; assay type: cell-based
[12] = resistance against proteases; assay type: physicochemical
[13] = system: submaxillary gland mucins; assay: viscosity and flow rate of mucin solution in vertical glass pipette; assay type: biochemical
Text: The mammalian mucinase, endogenously present at mucosal surfaces in mammals, provides the solution for the above-mentioned problems concerning diseases in which mucus is involved. A mucinase of the invention is capable of cleaving mucus. In one embodiment, a specific mouse (nucleotide sequence SEQ ID NO:3 (see, Table III, below) and amino acid sequence SEQ ID NO:4 (see, Table IV, below)) and human mucinase (nucleotide sequence SEQ ID NO:2 (see, Table II, above) and amino acid sequence SEQ ID NO:1 (see, Table I, above) is provided, called AMCase. It has a catalytically active 39 kDa domain which is connected via a hinge region with a C-terminal mucin-binding domain. To show its mucus-degrading property, we have incubated a mixture of submaxillary gland mucins with recombinant 50 kDa AMCase. The effect of the incubation was examined by analysis with SDS-PAGE and silver staining. […] The flow rate of the mucin solution, as measured in a vertically positioned glass pipette, was increased with almost a factor of 2.

Molecule: CC(=O)N[C@@H](CS)C(=O)O [N-acetylcysteine]
- mucolytic activity in vitro ([1]; in vitro): has mucolytic activity in vitro
- mucolytic activity in vivo ([1]; in vivo): has not been demonstrated convincingly in vivo

Molecule: chitotriosidase: human phagocyte chitinase, SEQ ID NO:10, used as comparator [reference compound]
- chitin content of cell wall reduced by [2]: 27%
- enzyme precipitated at 0.5% (w/v) TCA [3]: 58%
- enzyme precipitated at 2.5% (w/v) TCA ([3]; 2.5% (w/v) trichloroacetic acid): all chitotriosidase precipitates
- cleavage products released from chitin [4]: releases mainly chitobioside fragments
- pH optimum (pronounced) [5]: only a broad pH optimum
- effect of pre-incubation at low pH on activity [6]: completely inactivated

Molecule: human AMCase: human acidic mammalian chitinase/mucinase, amino acid sequence SEQ ID NO:1
- chitinolytic activity of expressed protein [7]: protein with chitinolytic activity

Molecule: mouse AMCase: acidic mammalian chitinase/mucinase of mouse, 50 kDa protein, amino acid sequence SEQ ID NO:4
- specific activity of the purified enzyme [8]: 3.9 nmol 4-methylumbelliferyl-chit
- specific activity of the purified enzyme ([8]; listed as mouse acidic chitinase): 3.9 nmol 4-methylumbelliferyl-chitotrioside hydrolyzed per mg per hour
- degradation of mucin [9]: degraded substantially
- degradation of mucin ([9]; listed as recombinant 50 kDa AMCase): remarkable reduction in size of the mucins
- binding to chitin particles [10]: high affinity
- effect on hyphae (fungistatic effect) [11]: selective lysis of the growing tip
- chitin content of cell wall reduced by [2]: 33%
- enzyme remaining unprecipitated at 2.5% (w/v) TCA [3]: 26%
- enzyme precipitated at 0.5% (w/v) TCA [3]: remains in solution
- resistance against proteases [12]: quite resistant against various proteases
- cleavage products released from chitin [4]: releases mainly chitobioside fragments
- less pronounced pH optimum [5]: 4.7 pH
- pH optimum (pronounced) [5]: 2.3 pH
- viscosity of the mucin solution after incubation [13]: markedly reduced
- increase of flow rate of the mucin solution ([13]; vertically positioned glass pipette): ~2 factor
